Experiments:
[1] = target: T1, human notum pectinacetyltransferase (Homo sapiens, UniProt Q6P988); experiment: Binding assay (OPTS esterase substrate, fluorimetric); type: biochemical; conditions: class symbols
T1 construct: made in house; unpurified conditioned medium used
T1 sequence (Q6P988 20-496): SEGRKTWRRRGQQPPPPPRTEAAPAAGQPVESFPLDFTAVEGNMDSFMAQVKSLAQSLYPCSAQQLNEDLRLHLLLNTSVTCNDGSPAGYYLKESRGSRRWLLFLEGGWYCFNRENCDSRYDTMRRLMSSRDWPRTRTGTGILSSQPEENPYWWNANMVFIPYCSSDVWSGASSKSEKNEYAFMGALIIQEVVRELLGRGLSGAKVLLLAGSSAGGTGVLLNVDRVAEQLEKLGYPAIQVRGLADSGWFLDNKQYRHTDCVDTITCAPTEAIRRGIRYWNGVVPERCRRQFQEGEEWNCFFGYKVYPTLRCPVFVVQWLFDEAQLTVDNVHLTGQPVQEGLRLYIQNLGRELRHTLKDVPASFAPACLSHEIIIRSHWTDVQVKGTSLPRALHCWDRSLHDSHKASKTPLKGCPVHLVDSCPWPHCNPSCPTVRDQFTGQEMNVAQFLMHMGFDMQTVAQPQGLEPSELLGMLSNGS
Procedure: Plasmid containing human notum pectinacetyltransferase in pcDNA3.1(+) vector was transfected into HEK (293 cells and clones were selecting by growing in presence of 400 ug/mL of G418. Condition media from these cells was used for the assay.

[2] = target: T1, human notum pectinacetyltransferase; experiment: Reporter assay (CellSensor LEF/TCF-bla FreeStyle 293F cells, Wnt3a and notum conditioned media); type: cell-based; conditions: class symbols
Procedure: Plasmid containing human notum pectinacetyltransferase in pcDNA3.1(+) vector was transfected into HEK (293 cells and clones were selecting by growing in presence of 400 ug/mL of G418. The clone containing highest expression of human notum pectinacetyltransferase in the conditioned media was maintained for all future activity assays. L cells overexpressing and secreting Wnt3a into the conditioned media were purchased from ATCC.
The assay protocol was as follows. […] The cell growth medium consisted of DMEM with 10% Dialyzed FBS, 5 μg/ml Blasticidin (Invitrogen, R210-01), 0.1 mM NEAA, 25 mM HEPES and 1×GPS. Cells were then trypsinized by first rinsing with PBS, followed by addition of 5 mL of trypsin and incubation of plates at room temperature for two minutes. A total of 10 mL of assay media (Opti-MEM, plus 0.5% dialyzed FBS, 0.1 mM NEAA, 1 mM sodium pyruvate, 10 mM HEPES, 1×GPS) was then added per 15 cm plate. Cells were counted and suspended at 0.75 million cells per mL. […] After incubation of cells at 37° C. for 3 hours, 10 μL of 30 mM LiCl in assay medium was added per well, followed by incubation at 37° C. for another 3 hours. […] Ten μL of the Wnt3a/notum pentinacetyltransferase mixture was then transferred from Greiner plates to each well of the 384-well plates containing the CellSensor cells.

SMILES	IC50 [1] [nM]	EC50 [2] [nM]
N#CC1CCN(C(=O)c2cc3c(s2)-c2ccc(Cl)c(F)c2OC3)C1 (centres unmarked)	< 1000	< 50
CCC1Cc2cc(C(N)=O)sc2-c2c(F)ccc(F)c21 (centres unmarked)	< 50	< 50
CCC1Cc2cc(C(=O)O)sc2-c2c(F)ccc(F)c21 (centres unmarked)	< 1000	< 50
CC1Cc2cc(C(=O)O)sc2-c2ccccc21 (centres unmarked)	< 1000	< 50
NC(=O)c1cc2c(s1)-c1cccc(Cl)c1OC2	< 1000	< 50
N#Cc1cccc2c1CCc1cc(C(N)=O)sc1-2	< 1000	< 50
NC(=O)c1cc2c(s1)-c1cccc(F)c1OC2	< 50	< 50
Cc1ccc2c(c1F)OCc1cc(C(=O)O)sc1-2	< 1000	< 50
Cc1cccc2c1OCc1cc(C(N)=O)sc1-2	< 1000	< 50
NC(=O)c1cc2c(s1)-c1cc(F)cc(F)c1OC2	< 50	< 50
O=C(O)c1cc2c(s1)-c1cc(F)cc(F)c1OC2	< 50	< 50
CC1(C)Oc2c(F)cc(F)cc2-c2sc(C(N)=O)cc21	< 1000	< 500
CC1Cc2cc(C(N)=O)sc2-c2cc(F)cc(F)c21 (centres unmarked)	< 50	< 50
CC1Cc2cc(C(=O)O)sc2-c2cc(F)cc(F)c21 (centres unmarked)	< 50	< 50
Cc1cc(C)c2c(c1)-c1sc(C(=O)O)cc1CO2	< 1000	< 50
CC1Cc2cc(C(N)=O)sc2-c2c(F)ccc(F)c21 (centres unmarked)	< 50	< 50
CC1Cc2cc(C(=O)O)sc2-c2c(F)ccc(F)c21 (centres unmarked)	< 50	< 50
CC1(C)Cc2cc(C(=O)O)sc2-c2c(F)ccc(F)c21	< 1000	< 50
O=C(O)c1cc2c(s1)-c1ccc(C(F)(F)F)cc1OC2	< 1000	< 50
O=C(O)c1cc2c(s1)-c1ccc(Br)cc1CC2	< 1000	< 50

SMILES	IC50 [1] [nM]	EC50 [2] [nM]
CC1Cc2cc(C(N)=O)sc2-c2ccc(Cl)cc21 (centres unmarked)	< 100	< 50
CC1Cc2cc(C(=O)O)sc2-c2ccc(Cl)cc21 (centres unmarked)	< 1000	< 50
CC1(C)Cc2cc(C(N)=O)sc2-c2ccc(Cl)cc21	< 1000	< 50
O=C(O)c1cc2c(s1)-c1ccc(F)cc1SC2	< 1000	< 50
CC1Cc2cc(C(=O)O)sc2-c2cc(F)c(F)cc21 (centres unmarked)	< 1000	< 50
CC1Cc2cc(C(N)=O)sc2-c2cc(F)c(F)cc21 (centres unmarked)	< 50	< 50
Cc1cc2c(cc1C)-c1sc(C(=O)O)cc1CO2	< 1000	< 50
Cc1cc(C)c2c(c1)OCc1cc(C(N)=O)sc1-2	< 2000	< 50
Cc1cc2c(cc1Cl)-c1sc(C(=O)O)cc1CO2	< 1000	< 50
CC1Oc2ccc(F)cc2-c2sc(C(N)=O)cc21 (centres unmarked)	< 100	< 50
NC(=O)c1cc2c(s1)-c1cc(F)ccc1OC2	< 50	< 50
CC1Cc2cc(C(N)=O)sc2-c2cc(F)ccc21 (centres unmarked)	< 50	< 50
CC1Cc2cc(C(=O)O)sc2-c2cc(F)ccc21 (centres unmarked)	< 50	< 50
Cc1cc(F)cc2c1OCc1cc(C(=O)O)sc1-2	< 100	< 50
Cc1cc2c(cc1F)-c1sc(C(=O)O)cc1CO2	< 100	< 50
O=C(NCCN1CCCCC1)c1cc2c(s1)-c1ccccc1CC2	< 1000	< 1000
O=C(NO)c1cc2c(s1)-c1ccccc1CC2	< 50	< 50
CCCNC(=O)c1cc2c(s1)-c1ccccc1CC2	< 100	< 500
CCOC(=O)c1cc2c(s1)-c1ccccc1CC2	< 2000	< 50
CC(C)(C)OC(=O)NCCNC(=O)c1cc2c(s1)-c1ccccc1CC2	< 2000	< 50

Source: patent publication US9624238B2, “4H-thieno[3,2-C]chromene-based inhibitors of Notum Pectinacetylesterase and methods of their use” (Lexicon Pharmaceuticals, Inc., priority 2011, dated 2017)
